In publication PMC1458514 (Nucleic Acids Research, 2006):

Legend:
Oligoribonuclease (Orn) = molecular target: T1, Oligoribonuclease (Orn) (Escherichia coli, UniProt P0A784); assay: Cy5-RNA 5mer degradation assay; type: biochemical
T1 sequence (P0A784 2-181): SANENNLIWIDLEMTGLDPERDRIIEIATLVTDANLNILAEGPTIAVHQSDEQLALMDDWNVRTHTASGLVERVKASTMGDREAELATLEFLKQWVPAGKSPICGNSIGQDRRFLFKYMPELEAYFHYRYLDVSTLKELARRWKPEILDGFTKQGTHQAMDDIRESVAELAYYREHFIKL

[1] = molecular target: nucleoside diphosphate kinase (NDK A) (Homo sapiens, UniProt P15531); assay: pAp-agarose affinity chromatography of HeLa extract, LC-MS/MS; type: cell-based
[2] = molecular target: T2, small fragment nuclease (Sfn) (Homo sapiens, UniProt Q9Y3B8); assay: Cy5-RNA 5mer degradation assay; type: biochemical
T2 sequence (Q9Y3B8 26-237): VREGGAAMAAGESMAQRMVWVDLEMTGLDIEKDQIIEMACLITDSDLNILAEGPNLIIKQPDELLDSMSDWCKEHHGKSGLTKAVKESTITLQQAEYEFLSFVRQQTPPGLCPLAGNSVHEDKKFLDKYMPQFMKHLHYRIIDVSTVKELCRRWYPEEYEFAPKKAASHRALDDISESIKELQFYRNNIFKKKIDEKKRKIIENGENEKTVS

Chain of nucleoside diphosphate kinase (NDK A) (P15531 2-152): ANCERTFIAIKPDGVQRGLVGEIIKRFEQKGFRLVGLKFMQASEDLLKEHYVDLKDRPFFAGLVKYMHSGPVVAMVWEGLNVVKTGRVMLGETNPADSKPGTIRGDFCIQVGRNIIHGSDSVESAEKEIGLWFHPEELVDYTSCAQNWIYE

- Cy5-RNA 5mer degradation assay (gel) with purified Orn; also pAp-agarose affinit (Oligoribonuclease (Orn)): ~ 20 µM
- Cy5-RNA 5mer degradation assay (gel) with purified Sfn; also pAp-agarose capture [2]: ~ 20 µM
SMILES: Nc1ncnc2c1ncn2[C@@H]1O[C@H](COP(=O)(O)O)[C@@H](OP(=O)(O)O)[C@H]1O [pAp]
- pAp-agarose affinity chromatography of HeLa extract, LC-MS/MS [1]: The second human enzyme we found to bind to pAp is NDK.
